# Tests used:
# CD4 T lymphocytes = assay: Proliferation of CD4 T lymphocytes in PBMC induced by IL2 (CFSE dilution, flow cytometry); format: cell-based, human; conditions: 20 μM dendrimer; PBMC with IL2; IL2 alone gives 70.2%
# Method: Peripheral blood samples are obtained from adult healthy volunteers through the Etablissement Français du Sang (Toulouse, France). Peripheral Blood Mononuclear Cells (PBMC) are isolated by Ficoll density gradient (Amersham Biosciences AB).
# PBMC are cultured at a final concentration of 1.5×10^6 cells/mL in complete RPMI 1640 medium, i.e. supplemented with 10% of heat inactivated fetal calf serum (FCS) (Invitrogen), 1 mM sodium pyruvate (Invitrogen), 2 mM L-glutamine, 100 U/mL penicillin and 100 μg/mL streptomycin (Cambrex Bioscience). Proliferation is activated by 400 U/mL of interleukin 2 (IL2) (Sanofi-Aventis) (a “growth factor” for lymphocytes). […]
# Proliferation of CD4 T lymphocytes is evaluated by flow cytometry by analyzing the intracellular dilution of a fluorescent probe: the 5,6-carboxyfluorescein diacetate N-succinimidylester (CFSE). […] Then, CFSE dilution is analyzed by flow cytometry to measure the proliferation CD4 T cells. After gating for CD4 positive cells (mouse anti-human CD4-PE-Cy5 clone 13B8.2, Beckman-Coulter), CFSE fluorescence intensities are analyzed, and the percentage of CD4 T cells which have proliferated during the culture is taken into account. […] The overall differences are evaluated by analysis of variance test (ANOVA) with Sigma Stat software (Systat Software).
# human monocytes = assay: Quantitative RT-PCR of mRNA expression in dendrimer-activated monocytes; format: cell-based; conditions: 20 μM, 6 hours; da-monocytes vs untreated monocytes, 6 donors
# Method: For genechip analysis, 10×10^6 monocytes from 3 donors (and from 3 more donors for quantitative PCR) are cultured in 25 cm^2 dishes. They are stimulated with 20 μM of dendrimer for 6 hours or remain untreated (control cells).
# Total RNA are purified as described above, and 5 μg are used to synthesize single-strand cDNA using M-MLV reverse transcriptase RNase H Minus (Promega), according to the manufacturer's instructions. Quantitative RT-PCR is then performed using the Platinium SYBR Green qPCR SuperMix UDG (Invitrogen) with forward and reverse primers at a final concentration of 300 nM. The primers are designed using Primer Express software from mRNA sequences submitted to Ensembl data base, and are listed in FIG. 7. Quantification of the different mRNA is performed on a 7000 Sequence Detection System (Applied Biosystems). PCR amplification begins with 1 cycle of 50° C. for 2 minutes and 95° C. for 10 minutes, followed with 40 cycles of denaturation at 95° C. for 15 seconds and annealing/extension at 60° C. for 60 seconds. All experiments are performed in duplicate. For each donor, the relative expression is calculated as 2^−ΔΔCt where ΔΔCt is the difference between ΔCt of the sample and the ΔCt of the reference consisting of the control monocytes. ΔCt is the difference between the Ct of the target gene and the GAPDH gene. For statistical analysis, a one-tailed paired t test is performed comparing the ΔCt values for the da-monocytes and the corresponding control monocytes with Sigma Stat software (Systat Software).
smiles,measurement,setting,value
CN(/N=C/c1ccc(OP2(Oc3ccc(/C=N/N(C)P(=S)(Oc4ccc(CCN(CP(=O)(O)O)CP(=O)(O)O)cc4)Oc4ccc(CCN(CP(=O)(O)O)CP(=O)(O)O)cc4)cc3)=NP(Oc3ccc(/C=N/N(C)P(=S)(Oc4ccc(CCN(CP(=O)(O)O)CP(=O)(O)O)cc4)Oc4ccc(CCN(CP(=O)(O)O)CP(=O)(O)O)cc4)cc3)(Oc3ccc(/C=N/N(C)P(=S)(Oc4ccc(CCN(CP(=O)(O)O)CP(=O)(O)O)cc4)Oc4ccc(CCN(CP(=O)(O)O)CP(=O)(O)O)cc4)cc3)=NP(Oc3ccc(/C=N/N(C)P(=S)(Oc4ccc(CCN(CP(=O)(O)O)CP(=O)(O)O)cc4)Oc4ccc(CCN(CP(=O)(O)O)CP(=O)(O)O)cc4)cc3)(c3ccc(/C=N/N(C)P(=S)(Oc4ccc(CCN(CP(=O)(O)O)CP(=O)(O)O)cc4)Oc4ccc(CCN(CP(=O)(O)O)CP(=O)(O)O)cc4)cc3)=N2)cc1)P(=S)(Oc1ccc(CCN(CP(=O)(O)O)CP(=O)(O)O)cc1)Oc1ccc(CCN(CP(=O)(O)O)CP(=O)(O)O)cc1 (stereo not shown) [Gc1],CD4 T lymphocytes that have divided,CD4 T lymphocytes,17.2%
same,mRNA expression of CCL5,human monocytes,significantly under-expressed
same,"mRNA expression of alternative activation genes MRC1, IL1 RN, IL10, CCL18 and CD23",human monocytes,significantly up-regulated
same,"mRNA expression of classical activation genes IL1β, IL6 and IL12",human monocytes,not significantly modified

# From patent publication US10106565B2 (priority 2008, dated 2018)
